Read-outs that look alike come from different tables or passages of the source. Positions of bridges follow the written chain, without caps; N, C: chain ends. Residues, ends and D or L forms follow the SMILES beside them.
Experiments:
Type in all cases: cell-based
[1] = test system: IFN-g secretion from T cells in human whole blood
[2] = test system: IL-2 secretion from T cells in human whole blood; details: read-out: WB (IL-2) IC50 (nM, Avg)
hKv1.3 = hKv1.3 (Homo sapiens, UniProt P22001); test: cell-based
Chain of hKv1.3 (P22001 whole entry): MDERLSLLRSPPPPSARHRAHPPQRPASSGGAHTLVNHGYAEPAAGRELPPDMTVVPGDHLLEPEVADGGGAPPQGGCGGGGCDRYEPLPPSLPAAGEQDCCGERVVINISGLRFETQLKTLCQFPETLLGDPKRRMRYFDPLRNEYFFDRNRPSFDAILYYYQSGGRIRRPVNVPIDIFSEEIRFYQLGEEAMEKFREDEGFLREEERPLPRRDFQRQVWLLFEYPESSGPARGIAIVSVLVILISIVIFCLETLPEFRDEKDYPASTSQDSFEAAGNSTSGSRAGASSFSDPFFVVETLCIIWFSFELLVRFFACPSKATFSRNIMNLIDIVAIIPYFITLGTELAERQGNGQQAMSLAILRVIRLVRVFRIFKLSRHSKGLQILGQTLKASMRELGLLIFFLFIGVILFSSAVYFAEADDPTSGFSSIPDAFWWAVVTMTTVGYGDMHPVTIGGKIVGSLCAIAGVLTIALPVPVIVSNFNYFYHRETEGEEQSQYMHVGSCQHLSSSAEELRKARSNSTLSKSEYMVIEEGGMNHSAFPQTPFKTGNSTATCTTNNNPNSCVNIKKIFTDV

[3] = read-out: WB (IFNg) IC50 (nM, Avg)

Compound | IC50 [1, 3] [nM] | IC50 [2] [nM] | IC50 (hKv1.3; Kv1.3 (IWQ) IC50 (nM, Avg)) [nM] | IC50 (hKv1.3; read-out: Kv1.3 (IWQ) IC50 (nM, Avg)) [nM] | IC50 ([1]; read-out: WB (IFNg) IC5- (nM, Avg)) [nM]
CC[C@H](C)[C@@H]1NC(=O)[C@@H](NC(=O)[C@H](CO)NC(=O)[C@@H](N)CCCNC(=N)N)CSSC[C@@H](C(=O)O)NC(=O)[C@H]([C@@H](C)O)NC(=O)CNC(=O)[C@@H]2CSSC[C@@H]3NC(=O)[C@H](CCC(N)=O)NC(=O)[C@H](Cc4ccccc4)NC(=O)[C@H](C)NC(=O)[C@H]([C@@H](C)O)NC(=O)[C@H](CSSC[C@H](NC(=O)[C@H](Cc4ccccc4)NC(=O)[C@H](CO)NC(=O)[C@H](CC(C)C)NC(=O)[C@H](CCCNC(=N)N)NC(=O)[C@H](Cc4ccc(O)cc4)NC(=O)[C@H](CCCCN)NC(=O)[C@H](CCSC)NC(=O)[C@H](CO)NC(=O)[C@H](Cc4cccc5ccccc45)NC(=O)[C@H](CCCCN)NC3=O)C(=O)N[C@@H](CCCNC(=N)N)C(=O)N[C@@H](CCCCN)C(=O)N[C@@H]([C@@H](C)O)C(=O)N2)NC(=O)[C@H](CCCNC(=N)N)NC(=O)[C@H](CO)NC(=O)[C@H](CCCCN)NC(=O)[C@@H]2CCCN2C(=O)[C@H]([C@@H](C)CC)NC(=O)[C@H]([C@@H](C)O)NC(=O)[C@H](CC(=O)O)NC1=O [[1-Nal19]ShK] | 0.255 | 0.153 | 0.277 | – | –
CC[C@H](C)[C@@H]1NC(=O)[C@@H](NC(=O)[C@H](CO)NC(=O)[C@@H](N)CCCNC(=N)N)CSSC[C@@H](C(=O)O)NC(=O)[C@H]([C@@H](C)O)NC(=O)CNC(=O)[C@@H]2CSSC[C@@H]3NC(=O)[C@H](CCC(N)=O)NC(=O)[C@H](CCCCN)NC(=O)[C@H](C)NC(=O)[C@H]([C@@H](C)O)NC(=O)[C@H](CSSC[C@H](NC(=O)[C@H](Cc4ccccc4)NC(=O)[C@H](CO)NC(=O)[C@H](CC(C)C)NC(=O)[C@H](CCCNC(=N)N)NC(=O)[C@H](Cc4ccc(O)cc4)NC(=O)[C@H](CCCCN)NC(=O)[C@H](CCSC)NC(=O)[C@H](CO)NC(=O)[C@H](Cc4c[nH]cn4)NC(=O)[C@H](CCCCN)NC3=O)C(=O)N[C@@H](CCCNC(=N)N)C(=O)N[C@@H](CCCCN)C(=O)N[C@@H]([C@@H](C)O)C(=O)N2)NC(=O)[C@H](CCCNC(=N)N)NC(=O)[C@H](CO)NC(=O)[C@H](CCCCN)NC(=O)[C@@H]2CCCN2C(=O)[C@H]([C@@H](C)CC)NC(=O)[C@H]([C@@H](C)O)NC(=O)[C@H](CC(=O)O)NC1=O [[Lys15]ShK] | 0.991 | 0.465 | 0.295 | – | –
CC[C@H](C)[C@@H]1NC(=O)[C@@H](NC(=O)[C@H](CO)NC(=O)[C@@H](N)CCCNC(=N)N)CSSC[C@@H](C(N)=O)NC(=O)[C@H]([C@@H](C)O)NC(=O)CNC(=O)[C@@H]2CSSC[C@@H]3NC(=O)[C@H](CCCCN)NC(=O)[C@H](Cc4ccccc4)NC(=O)[C@H](C)NC(=O)[C@H]([C@@H](C)O)NC(=O)[C@H](CSSC[C@H](NC(=O)[C@H](Cc4ccccc4)NC(=O)[C@H](CO)NC(=O)[C@H](CC(C)C)NC(=O)[C@H](CCCNC(=N)N)NC(=O)[C@H](Cc4ccc(O)cc4)NC(=O)[C@H](CCCCN)NC(=O)[C@H](CCSC)NC(=O)[C@H](CO)NC(=O)[C@H](Cc4c[nH]cn4)NC(=O)[C@H](CCCCN)NC3=O)C(=O)N[C@@H](CCCCN)C(=O)N[C@@H](CCCNC(=N)N)C(=O)N[C@@H]([C@@H](C)O)C(=O)N2)NC(=O)[C@H](CCCNC(=N)N)NC(=O)[C@H](CO)NC(=O)[C@H](CCCCN)NC(=O)[C@@H]2CCCN2C(=O)[C@H]([C@@H](C)CC)NC(=O)[C@H]([C@@H](C)O)NC(=O)[C@H](CC(=O)O)NC1=O [[Lys16,29; Arg30]ShK-amide] | 0.281 | 0.339 | 0.131 | – | –
CC[C@H](C)[C@@H]1NC(=O)[C@H]([C@@H](C)O)NC(=O)[C@H](CC(=O)O)NC(=O)[C@H](CCC(=O)O)NC(=O)[C@@H](NC(=O)[C@H](CO)NC(=O)[C@@H](N)CCCNC(=N)N)CSSC[C@@H](C(N)=O)NC(=O)[C@H]([C@@H](C)O)NC(=O)CNC(=O)[C@@H]2CSSC[C@@H]3NC(=O)[C@H](CCCCN)NC(=O)[C@H](Cc4ccccc4)NC(=O)[C@H](C)NC(=O)[C@H]([C@@H](C)O)NC(=O)[C@H](CSSC[C@H](NC(=O)[C@H](Cc4ccccc4)NC(=O)[C@H](CO)NC(=O)[C@H](CC(C)C)NC(=O)[C@H](CCCNC(=N)N)NC(=O)[C@H](Cc4ccc(O)cc4)NC(=O)[C@H](CCCCN)NC(=O)[C@H](CCSC)NC(=O)[C@H](CO)NC(=O)[C@H](Cc4c[nH]cn4)NC(=O)[C@H](CCCNC(=N)N)NC3=O)C(=O)N[C@@H](CCCCN)C(=O)N[C@@H](CCCNC(=N)N)C(=O)N[C@@H]([C@@H](C)O)C(=O)N2)NC(=O)[C@H](CCCNC(=N)N)NC(=O)[C@H](CO)NC(=O)[C@H](CCC(=O)O)NC(=O)[C@@H]2CCCN2C1=O [[Glu4,9;Lys16,29;Arg18,30]ShK-amide] (H-RSCEDTIPESRCTAFKCRHSMKYRLSFCKRTCGTC-NH2; disulfide 3-35, 12-28, 17-32) | 0.345 | 0.151 | 0.062 | – | –
CCCC[C@@H]1NC(=O)[C@H](CO)NC(=O)[C@H](Cc2c[nH]cn2)NC(=O)[C@H](CCCCN)NC(=O)[C@@H]2CSSC[C@@H]3NC(=O)[C@H]([C@@H](C)O)NC(=O)[C@H](CCCCN)NC(=O)[C@H](CCCNC(=N)N)NC(=O)[C@H](CSSC[C@H](NC(=O)[C@H](CCCNC(=N)N)NC(=O)[C@H](CO)NC(=O)[C@H](CCCCN)NC(=O)[C@@H]4CCCN4C(=O)[C@H]([C@@H](C)CC)NC(=O)[C@H]([C@@H](C)O)NC(=O)[C@H](CC(=O)O)NC(=O)[C@H]([C@@H](C)CC)NC(=O)[C@@H](NC(=O)[C@H](CO)NC(=O)[C@@H](N)CCCNC(=N)N)CSSC[C@@H](C(=O)N[C@@H](Cc4ccc(O)cc4)C(=O)O)NC(=O)[C@H]([C@@H](C)O)NC(=O)CNC3=O)C(=O)N[C@@H]([C@@H](C)O)C(=O)N[C@@H](C)C(=O)N[C@@H](Cc3ccccc3)C(=O)N[C@@H](CCCCN)C(=O)N2)NC(=O)[C@H](Cc2ccccc2)NC(=O)[C@H](CO)NC(=O)[C@H](CC(C)C)NC(=O)[C@H](CCCNC(=N)N)NC(=O)[C@H](Cc2ccc(O)cc2)NC(=O)[C@H](CCCCN)NC1=O [[Lys16,N1e21]ShK-Tyr] | 0.485 | 0.418 | 109 | – | –
30kDaPEG-ShK | 2.42 | 0.372 | – | 1.93 | –
CC[C@H](C)[C@@H]1NC(=O)[C@@H](NC(=O)[C@H](CO)NC(=O)[C@@H](N)CCCNC(=N)N)CSSC[C@@H](C(N)=O)NC(=O)[C@H]([C@@H](C)O)NC(=O)CNC(=O)[C@@H]2CSSC[C@@H]3NC(=O)[C@H](CCCCN)NC(=O)[C@H](Cc4ccccc4)NC(=O)[C@H](C)NC(=O)[C@H]([C@@H](C)O)NC(=O)[C@H](CSSC[C@H](NC(=O)[C@H](Cc4ccccc4)NC(=O)[C@H](CO)NC(=O)[C@H](CC(C)C)NC(=O)[C@H](CCCNC(=N)N)NC(=O)[C@H](Cc4ccc(O)cc4)NC(=O)[C@H](CCCCN)NC(=O)[C@H](CCSC)NC(=O)[C@H](CO)NC(=O)[C@H](Cc4c[nH]cn4)NC(=O)[C@H](CCC(=O)O)NC3=O)C(=O)N[C@@H](CCCNC(=N)N)C(=O)N[C@@H](CCCCN)C(=O)N[C@@H]([C@@H](C)O)C(=O)N2)NC(=O)[C@H](CCCNC(=N)N)NC(=O)[C@H](CO)NC(=O)[C@H](CCCCN)NC(=O)[C@@H]2CCCN2C(=O)[C@H]([C@@H](C)CC)NC(=O)[C@H]([C@@H](C)O)NC(=O)[C@H](CC(=O)O)NC1=O [[Lys16, Glu18]ShK-amide] | 0.234 | 0.119 | 0.065 | – | –
CC[C@H](C)[C@@H]1NC(=O)[C@@H](NC(=O)[C@H](CO)NC(=O)[C@@H](N)CCCNC(=N)N)CSSC[C@@H](C(=O)O)NC(=O)[C@H]([C@@H](C)O)NC(=O)CNC(=O)[C@@H]2CSSC[C@@H]3NC(=O)[C@H](CCC(N)=O)NC(=O)[C@H](CCC(=O)O)NC(=O)[C@H](C)NC(=O)[C@H]([C@@H](C)O)NC(=O)[C@H](CSSC[C@H](NC(=O)[C@H](Cc4ccccc4)NC(=O)[C@H](CO)NC(=O)[C@H](CC(C)C)NC(=O)[C@H](CCCNC(=N)N)NC(=O)[C@H](Cc4ccc(O)cc4)NC(=O)[C@H](CCCCN)NC(=O)[C@H](CCSC)NC(=O)[C@H](CO)NC(=O)[C@H](Cc4c[nH]cn4)NC(=O)[C@H](CCCCN)NC3=O)C(=O)N[C@@H](CCCNC(=N)N)C(=O)N[C@@H](CCCCN)C(=O)N[C@@H]([C@@H](C)O)C(=O)N2)NC(=O)[C@H](CCCNC(=N)N)NC(=O)[C@H](CO)NC(=O)[C@H](CCCCN)NC(=O)[C@@H]2CCCN2C(=O)[C@H]([C@@H](C)CC)NC(=O)[C@H]([C@@H](C)O)NC(=O)[C@H](CC(=O)O)NC1=O [[Glu15]ShK] | – | 0.312 | 0.266 | – | 0.575
CCC[C@@H]1NC(=O)[C@H](CO)NC(=O)[C@H](Cc2c[nH]cn2)NC(=O)[C@H](CCCCN)NC(=O)[C@@H]2CSSC[C@@H]3NC(=O)[C@H]([C@@H](C)O)NC(=O)[C@H](CCCCN)NC(=O)[C@H](CCCNC(=N)N)NC(=O)[C@H](CSSC[C@H](NC(=O)[C@H](CCCNC(=N)N)NC(=O)[C@H](CO)NC(=O)[C@H](CCCCN)NC(=O)[C@@H]4CCCN4C(=O)[C@H]([C@@H](C)CC)NC(=O)[C@H]([C@@H](C)O)NC(=O)[C@H](CC(=O)O)NC(=O)[C@H]([C@@H](C)CC)NC(=O)[C@@H](NC(=O)[C@H](CO)NC(=O)[C@@H](N)CCCNC(=N)N)CSSC[C@@H](C(=O)N[C@@H](C)C(N)=O)NC(=O)[C@H]([C@@H](C)O)NC(=O)CNC3=O)C(=O)N[C@@H]([C@@H](C)O)C(=O)N[C@@H](C)C(=O)N[C@@H](Cc3ccccc3)C(=O)N[C@@H](CCCCN)C(=O)N2)NC(=O)[C@H](Cc2ccccc2)NC(=O)[C@H](CO)NC(=O)[C@H](CC(C)C)NC(=O)[C@H](CCCNC(=N)N)NC(=O)[C@H](Cc2ccc(O)cc2)NC(=O)[C@H](CCCCN)NC1=O [[Lys16,Nva21]ShK-Ala-amide] | 1.46 | 0.431 | 0.08 | – | –

Source: patent US20120121591A1 (priority 2009, published 2012)
